Results on 20 compounds are retold here after patent US20120214847A1, “2-[1-PHENYL-5-HYDROXY-4a-SUBSTITUTED-HEXAHYDROCYCLOPENTA[F]INDAZOL-5-YL]ETHYL PHENYL DERIVATIVES AS GLUCOCORTICOID RECEPTOR LIGANDS” (Merck Sharp & Dohme Corp., priority 2009, published 2012).

For the test, the target named is T1, human GR (Homo sapiens, UniProt P04150).
T1 construct: naturally expresses the human GR; endogenous in cells
T1 sequence (P04150 1-777): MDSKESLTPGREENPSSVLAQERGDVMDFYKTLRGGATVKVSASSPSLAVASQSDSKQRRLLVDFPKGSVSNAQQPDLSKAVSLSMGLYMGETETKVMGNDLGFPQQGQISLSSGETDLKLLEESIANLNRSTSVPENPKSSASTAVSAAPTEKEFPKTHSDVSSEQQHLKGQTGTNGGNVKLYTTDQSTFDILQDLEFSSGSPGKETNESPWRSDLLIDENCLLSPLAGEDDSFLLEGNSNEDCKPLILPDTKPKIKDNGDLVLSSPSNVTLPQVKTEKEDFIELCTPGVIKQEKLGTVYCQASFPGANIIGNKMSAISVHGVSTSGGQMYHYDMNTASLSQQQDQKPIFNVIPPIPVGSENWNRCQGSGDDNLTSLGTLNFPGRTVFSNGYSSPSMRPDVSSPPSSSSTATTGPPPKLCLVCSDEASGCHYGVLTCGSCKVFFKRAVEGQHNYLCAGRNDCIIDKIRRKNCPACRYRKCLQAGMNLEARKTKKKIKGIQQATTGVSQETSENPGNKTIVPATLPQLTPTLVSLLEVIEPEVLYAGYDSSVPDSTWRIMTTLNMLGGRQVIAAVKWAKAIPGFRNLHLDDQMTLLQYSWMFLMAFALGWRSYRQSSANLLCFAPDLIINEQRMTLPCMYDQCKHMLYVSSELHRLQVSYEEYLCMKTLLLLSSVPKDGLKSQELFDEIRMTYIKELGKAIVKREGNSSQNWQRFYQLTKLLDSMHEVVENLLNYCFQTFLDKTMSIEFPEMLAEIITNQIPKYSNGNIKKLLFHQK
Description: Transrepression assay (GITAR), TNFα-β-lactamase reporter in U937 cells. Particulars: for EC50 / Transrepression U937 Cells GITAR Emax (%): U937 cells; for EC50: IP = inflection point; for Emax: U-937, U937 cells; for Emax / Transrepression U937 Cells GITAR Emax (%): activity repressed by 100 nM dexamethasone alone set as 100%. In kind it is cell-based. From the text:
Transrepression Assay (GITAR)
This assay assesses the ability of test compounds to control transcription from the TNFα-β-lactamase reporter gene in U937 cells, a human myelomonocytic leukemia cell line that naturally expresses the human GR. The assay measures compound dependent-repression of the TNFa promoter linked to a reporter gene.
The human U937 cells that had been stablely transfected with the TNF-a promoter driving ˜-lactamase are used for this assay. U937 cells contain an endogenous glucocorticoid receptor (GR). Cells are maintained in RPMI 1640 Growth medium (GibcoCat#11875-093) containing 25 mM HEPES, 10% FBS, 2 mM L-Glutamine, 1 mM Sodium pyruvate, 25 μg/ml Gentamicin (Gibed Cat#1571 0-064), 1:1000 2-Mercaptoethanol (Gibco Cat#21985-023) and 0.8 mg/ml G418 (Gibco Cat#10131-027). The density of the cells in the flask needs to be about 1×10^6-3×10^6/ml at the time of harvest. Usually, the cells are split to 1.2˜1.4×10^5/ml (1:10) 3 days prior to the assay. 50,000 cells/well are plated in 96 well black-walled plates the day of assay. Test compounds are added 10 J.lL/well, and cells are incubated at 37° C. for 30˜45 min. For assaying compounds, first dilute 1:10 in DMSO to make 1 mM, then further dilute 1:100 in medium to make 10× stock prior to adding to the cells. Add 50 ng/ml PMA (Sigma, cat#P8139) 10 μL/well to a final concentration 5 ng/ml, and 1 μg/ml LPS (Sigma, cat#L4130) 10 μL/well to a final concentration 100 ng/ml. Incubate cells at 370 C overnight for −18 hr. PMA is stored frozen as […] in DMSO. Dilute 1:10 in DMSO for a working stock of 10 μg/ml and store at −20° C. For assaying, dilute the 10 μg/ml working stock 1:200 in medium to make a 10× solution (50 ng/ml). Store frozen LPS at 1 mg/ml in PBS, dilute 1:1000 in medium to make 10×μg/ml) for the assay. Add 6× loading buffer (CCF2-AM) 20 μL/well, and incubate at room temperature for 70-90 min. […] The activity repressed by 100 nM dexamethasone alone is set as 100% activity.

With `CC[C@]12Cc3cnn(-c4ccc(F)cc4)c3C=C1CC[C@@]2(O)CCc1cncc(F)c1` [Example 21, (4aS,5R)-4a-Ethyl-1-(4-fluorophenyl)-5-[2-(5-fluoropyridin-3-yl)ethyl]-1,4,4a,5,6,7-hexahydrocyclopenta[f]indazol-5-ol], a half-maximal effect (EC50) was put at 95 nM and the Emax (usually the size of the effect at its maximum, as opposed to the concentration needed) worked out at 87%.
On to `OC(C[C@]1(O)CCC2=Cc3c(cnn3-c3ccc(F)cc3)C[C@@]21C1CC1)c1ccc(F)cn1` (single isomer, unassigned) [Example 79a], for which the EC50 (as a rule, the concentration needed to bring the measured effect to its halfway point) amounted to 167 nM and the Emax is 41%.
On to `CC[C@]12Cc3cnn(-c4ccc(F)cc4)c3C=C1CC[C@@]2(O)CCc1cccc(F)c1CC(N)=O` [Example 60, 2-(2-{2-[(4aS,5R)-4a-Ethyl-1-(4-fluorophenyl)-5-hydroxy-1,4,4a,5,6,7-hexahydrocyclopenta[f]indazol-5-yl]ethyl}-6-fluorophenyl)acetamide], for which the EC50 stood at 24 nM and the Emax is 84%.
`CC[C@]12Cc3cnn(-c4cccnc4)c3C=C1CC[C@@]2(O)CCc1ccc(F)cc1C#N` [Example 9, 2-{2-[(4aS,5R)-4a-Ethyl-5-hydroxy-1-(pyridin-3-yl)-1,4,4a,5,6,7-hexahydrocyclopenta[f]indazol-5-yl]ethyl}-5-fluorobenzonitrile] showed an EC50 of 120 nM and a maximum response (Emax) of 71%.
`N#Cc1ccccc1CC[C@]1(O)CCC2=Cc3c(cnn3-c3ccccc3)C[C@@]21C1CC1` [Example 27, 2-{2-[(4aR,5R)-4a-Cyclopropyl-5-hydroxy-1-phenyl-1,4,4a,5,6,7-hexahydrocyclopenta[f]indazol-5-yl]ethyl}benzonitrile]: a half-maximal response (EC50) required 51 nM and the Emax worked out at 86%.
Regarding `CC[C@]12Cc3cnn(-c4ccc(F)cc4)c3C=C1CC[C@@]2(O)CCc1ncccc1S(=O)(=O)C(C)C` [Example 62, (4aS,5R)-4a-Ethyl-1-(4-fluorophenyl)-5-{2-[3-(propan-2-ylsulfonyl)pyridin-2-yl]ethyl}-1,4,4a,5,6,7-hexahydrocyclopenta[f]indazol-5-ol], the concentration for a half-maximal effect (EC50) is 12 nM and the Emax was 85%.
As to `CC[C@]12Cc3cnn(-c4ccccc4)c3C=C1CC[C@@]2(O)CCc1cccc(F)c1C#N` [Example 15, 2-{2-[(4aS,5R)-4a-Ethyl-5-hydroxy-1-phenyl-1,4,4a,5,6,7-hexahydrocyclopenta[f]indazol-5-yl]ethyl}-6-fluorobenzonitrile], a half-maximal effect (EC50) was put at 114 nM and the maximal effect (Emax) stood at 89%.
As for `CCS(=O)(=O)c1ccccc1CC[C@]1(O)CCC2=Cc3c(cnn3-c3ccc(F)cc3)C[C@@]21C1CC1` [Example 59, (4aR,5R)-4a-Cyclopropyl-5-{2-[2-(ethylsulfonyl)phenyl]ethyl}-1-(4-fluorophenyl)-1,4,4a,5,6,7-hexahydrocyclopenta[f]indazol-5-ol], the EC50 was determined as 74 nM and the maximum response (Emax) is 88%.
`CC[C@]12Cc3cnn(-c4cccnc4)c3C=C1CC[C@@]2(O)CCc1ccccc1C(N)=O` [Example 13, 2-{2-[(4aS,5R)-4a-Ethyl-5-hydroxy-1-(pyridin-3-yl)-1,4,4a,5,6,7-hexahydrocyclopenta[f]indazol-5-yl]ethyl}benzamide] displayed a concentration giving a half-maximal response (EC50) of 163 nM and an Emax of 76%.
`CC(C)(CO)NC(=O)c1cc(F)cnc1CC[C@]1(O)CCC2=Cc3c(cnn3-c3ccc(F)cc3)C[C@@]21C1CC1` [Example 48, 2-{2-[(4aR,5R)-4a-Cyclopropyl-1-(4-fluorophenyl)-5-hydroxy-1,4,4a,5,6,7-hexahydrocyclopenta[f]indazol-5-yl]ethyl}-5-fluoro-N-(1-hydroxy-2-methylpropan-2-yl)pyridine-3-carboxamide] had a concentration giving a half-maximal response (EC50) of 9 nM and a maximum response (Emax) of 87%.
For `CC[C@]12Cc3cnn(-c4ccc(F)cc4)c3C=C1CC[C@@]2(O)CC(O)c1ncccc1F` (stereo partly drawn) [Example 77, (4aS,5R)-4a-Ethyl-1-(4-fluorophenyl)-5-[2-(3-fluoropyridin-2-yl)-2-hydroxyethyl]-1,4,4a,5,6,7-hexahydrocyclopenta[f]indazol-5-ol], the EC50 was 162 nM and the “Transrepression U937 Cells GITAR Emax (%)” value is 60%.
Consider `CC[C@]12Cc3cnn(-c4ccc(F)cc4)c3C=C1CC[C@@]2(O)CCc1cc(F)ccn1` [Example 18, (4aS,5R)-4a-Ethyl-1-(4-fluorophenyl)-5-[2-(4-fluoropyridin-2-yl)ethyl]-1,4,4a,5,6,7-hexahydrocyclopenta[f]indazol-5-ol], for which the EC50 stood at 74 nM and the maximum response (Emax) came out at 80%.
As to `CC[C@]12Cc3cnn(-c4ccc(F)cc4)c3C=C1CC[C@@]2(O)CC(O)c1ccc(F)cn1` (single isomer, unassigned) [Example 69b], a half-maximal response (EC50) required 94 nM and the “Transrepression U937 Cells GITAR Emax (%)” value is reported as 80%.
Compound `NC(=O)c1cccnc1CC[C@]1(O)CCC2=Cc3c(cnn3-c3ccc(F)cc3)C[C@@]21C1CC1` [Example 1, 2-{2-[(4aR,5R)-4a-Cyclopropyl-1-(4-fluorophenyl)-5-hydroxy-1,4,4a,5,6,7-hexahydrocyclopenta[f]indazol-5-yl]ethyl}pyridine-3-carboxamide] yielded an EC50 of 55 nM and a maximal response (Emax) of 77%.
Turning to `CC[C@]12Cc3cnn(-c4cccc(F)c4)c3C=C1CC[C@@]2(O)CCc1ccccc1C(N)=O` [Example 11, 2-{2-[(4aS,5R)-4a-Ethyl-1-(3-fluorophenyl)-5-hydroxy-1,4,4a,5,6,7-hexahydrocyclopenta[f]indazol-5-yl]ethyl}benzamide], a half-maximal effect (EC50) was put at 80 nM and the Emax was 82%.
In the case of `CC[C@]12Cc3cnn(-c4ccccc4)c3C=C1CC[C@@]2(O)CCc1ccc(F)cc1C(N)=O` [Example 6], a half-maximal response (EC50) required 143 nM and the Emax turned out to be 75%.
The matching figures for `O=S(=O)(c1ccccc1CC[C@]1(O)CCC2=Cc3c(cnn3-c3ccc(F)cc3)C[C@@]21C1CC1)C1CC1` [Example 63, (4aR,5R)-4a-Cyclopropyl-5-{2-[2-(cyclopropylsulfonyl)phenyl]ethyl}-1-(4-fluorophenyl)-1,4,4a,5,6,7-hexahydrocyclopenta[f]indazol-5-ol]: 127 nM and 75%.
`N#Cc1ccnc(CC[C@]2(O)CCC3=Cc4c(cnn4-c4ccc(F)cc4)C[C@@]32C2CC2)c1` [Example 35, 2-{2-[(4aR,5R)-4a-Cyclopropyl-1-(4-fluorophenyl)-5-hydroxy-1,4,4a,5,6,7-hexahydrocyclopenta[f]indazol-5-yl]ethyl}pyridine-4-carbonitrile] came in with a concentration giving a half-maximal response (EC50) of 73 nM and an Emax of 87%.
Turning to `NC(=O)c1ccccc1CC[C@]1(O)CCC2=Cc3c(cnn3-c3ccc(F)cc3)C[C@@]21C1CC1` [Example 23, 2-{2-[(4aR,5R)-4a-Cyclopropyl-1-(4-fluorophenyl)-5-hydroxy-1,4,4a,5,6,7-hexahydrocyclopenta[f]indazol-5-yl]ethyl}benzamide], the concentration giving a half-maximal response (EC50) is 22 nM and the maximal effect (Emax) was determined as 77%.
In the case of `O[C@@]1(CCc2cc(C(F)(F)F)ccn2)CCC2=Cc3c(cnn3-c3ccc(F)cc3)C[C@@]21C1CC1` [Example 32, (4aR,5R)-4a-Cyclopropyl-1-(4-fluorophenyl)-5-{2-[4-(trifluoromethyl)pyridin-2-yl]ethyl}-1,4,4a,5,6,7-hexahydrocyclopenta[f]indazol-5-ol], the response was half-maximal at 266 nM (EC50) and the maximum response (Emax) is 83%.
